Measured values: patent US10288629B1, “Method of assessing growth hormone deficiency in humans by a macimorelin containing composition” (AEterna Zentaris, Inc., priority 2017, dated 2019)

Experiments:
[1] = system: GH level; experiment: agreement of the Macimorelin GHST with the ITT for diagnosis of AGHD; assay type: in vivo, human; conditions: cut-off 2.8 ng/mL macimorelin, 5.1 ng/mL ITT, N = 139
Experimental: The study protocol allowed for a 5 minutes time window for each of said time points, meaning that a blood sample collected for example within 25 to 35 min after GH provocation agent administration was […] collected for the 30 min time point.

[2] = system: peak GH concentrations; experiment: peak GH response in the macimorelin GHST and ITT; assay type: in vivo, human; conditions: all AGHD likelihood groups A-D; N=139; FIG. 5
Experimental: Blood samples were collected before and 30, 45, 60, and 90 minutes after administration of macimorelin and before and 15, 30, 45, 60, 90 and 120 minutes after administration of insulin to the efficacy data set subjects and GH levels were determined for all samples.

[3] = system: GH level; experiment: repeatability of the macimorelin GHST; assay type: in vivo, human; conditions: below or above cut-off point
Excerpt: To assess the repeatability of the macimorelin GHST, 33 subjects with a valid first macimorelin test (core study) underwent a second macimorelin test (repeatability study extension).

[4] = design: species or system human; conditions: in vivo
[5] = molecular target: T1, human GHS receptor (Homo sapiens, UniProt Q92847); conditions: membrane preparations from human hypothalamus and pituitary gland; compared with ghrelin; cited from earlier work
T1 construct: membrane preparations containing the GHS-receptor derived from human hypothalamus and pituitary gland; from tissue; host or cells: human hypothalamus and pituitary gland membranes
T1 sequence (Q92847 whole entry): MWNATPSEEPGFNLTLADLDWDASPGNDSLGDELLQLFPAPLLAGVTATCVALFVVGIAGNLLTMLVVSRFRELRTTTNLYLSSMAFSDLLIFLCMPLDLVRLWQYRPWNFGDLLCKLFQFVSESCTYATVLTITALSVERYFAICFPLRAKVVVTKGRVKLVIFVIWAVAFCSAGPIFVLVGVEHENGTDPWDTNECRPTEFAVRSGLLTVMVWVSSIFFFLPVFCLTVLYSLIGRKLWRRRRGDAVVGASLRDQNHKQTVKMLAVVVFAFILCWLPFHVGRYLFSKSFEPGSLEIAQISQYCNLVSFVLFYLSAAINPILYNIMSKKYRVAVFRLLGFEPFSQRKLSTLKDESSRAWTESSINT

[6] = macimorelin sample: peak of 0-90 min
[7] = macimorelin sample: peak of 45 & 60 min
[8] = macimorelin sample: peak of 60 & 90 min

With CC(C)(N)C(=O)N[C@H](Cc1c[nH]c2ccccc12)C(=O)N[C@H](Cc1c[nH]c2ccccc12)NC=O [Macimorelin, macimorelin] the Negative % agreement ([1]; macimorelin sample: 30 min) was 73.85%, the Positive % agreement ([1]; macimorelin sample: 30 min) was 82.43% and the Total % agreement ([1]; macimorelin sample: 30 min) was 78.42%. For the same compound, the Negative % agreement ([1]; macimorelin sample: 45 min) was 86.15%, the Positive % agreement ([1]; macimorelin sample: 45 min) was 78.38% and the Total % agreement ([1]; macimorelin sample: 45 min) was 82.01%. For the same compound, the Negative % agreement ([1]; macimorelin sample: 60 min) was 95.31%, the Positive % agreement ([1]; macimorelin sample: 60 min) was 81.08% and the Total % agreement ([1]; macimorelin sample: 60 min) was 87.68%. For the same compound, the Negative % agreement ([1]; macimorelin sample: 90 min) was 84.62%, the Positive % agreement ([1]; macimorelin sample: 90 min) was 86.49% and the Total % agreement ([1]; macimorelin sample: 90 min) was 85.61%. It also gave a Negative % agreement [1, 6] of 95.38%, a Positive % agreement [1, 6] of 74.32% and a Total % agreement [1, 6] of 84.17%. The Negative % agreement [1, 7] was 95.38%, the Positive % agreement [1, 7] was 75.68% and the Total % agreement [1, 7] was 84.89%. It also gave a Negative % agreement [1, 8] of 95.38%, a Positive % agreement [1, 8] of 78.38% and a Total % agreement [1, 8] of 86.33%. It also gave a Negative % agreement ([1]; macimorelin sample: pre-dose) of 13.85%, a Positive % agreement ([1]; macimorelin sample: pre-dose) of 98.65% and a Total % agreement ([1]; macimorelin sample: pre-dose) of 58.99%. For the same compound, the “peak GH levels in the macimorelin GHST as compared to the ITT” value [2] was “higher peak GH levels”, the “result of second macimorelin test matching result of first test” value ([3]; 33 subjects) was 94% and the “subjects with reproducible test outcome (number)” value ([3]; out of 33 subjects) was 31. For the same compound, the diarrhea ([4]; human) was 1.9%, the dizziness ([4]; human) was 3.9% and the dysgeusia ([4]; human) was 4.5%. The fatigue ([4]; human) was 3.9%, the feeling hot ([4]; human) was 1.3% and the headache ([4]; human) was 3.9%. It also gave a hunger ([4]; human) of 3.2%, a hyperhidrosis ([4]; human) of 1.3% and a nasopharyngitis ([4]; human) of 1.3%. The nausea ([4]; human) was 3.2%, the sinus bradycardia ([4]; human) was 1.3% and the “upper respiratory tract infection” value ([4]; human) was 1.9%. For the same compound, the “binding potency to the human GHS receptor” value [5] was “comparable to that of its natural ligand, ghrelin”.
With “ITT: insulin tolerance test: intravenous administration of insulin to induce hypoglycaemia, which leads to GH release; comparator GHST [reference compound]” the “Any TEAE (likely or possible related), % of subjects” value [4] was 94.9%, the “Any TEAE (likely or possible related), Frequency (number of subjects)” value [4] was 149 and the “Any TEAE (likely or possible related), N AEs” value [4] was 710. The “Any TEAE, % of subjects” value [4] was 96.2%, the “Any TEAE, N AEs (number of all AEs)” value [4] was 761 and the “Any test emergent severe AE, % of subjects” value [4] was 7%. For the same compound, the “severe TEAE asthenia, number of subjects” value [4] was 4, the “severe TEAE hunger, number of subjects” value [4] was 3 and the “severe TEAE hyperhidrosis, number of subjects” value [4] was 5. For the same compound, the “severe TEAE nervousness, number of subjects” value [4] was 2, the “severe TEAE somnolence, number of subjects” value [4] was 5 and the “severe TEAE tremor, % of subjects” value [4] was 0.6%. The “severe TEAE tremor, number of subjects” value [4] was 1.
